Data taken from patent publication US6878716B1, “Compounds specific to adenosine A1 receptor and uses thereof” (OSI Pharmaceuticals, Inc., priority 1998, dated 2005).
Where two headings read alike, the source gives them in different places.

Legend:
[1] = target: T1, A1 adenosine receptor (Homo sapiens, UniProt P30542); conditions: reported value; cited from earlier work
T1 sequence (P30542 1-326): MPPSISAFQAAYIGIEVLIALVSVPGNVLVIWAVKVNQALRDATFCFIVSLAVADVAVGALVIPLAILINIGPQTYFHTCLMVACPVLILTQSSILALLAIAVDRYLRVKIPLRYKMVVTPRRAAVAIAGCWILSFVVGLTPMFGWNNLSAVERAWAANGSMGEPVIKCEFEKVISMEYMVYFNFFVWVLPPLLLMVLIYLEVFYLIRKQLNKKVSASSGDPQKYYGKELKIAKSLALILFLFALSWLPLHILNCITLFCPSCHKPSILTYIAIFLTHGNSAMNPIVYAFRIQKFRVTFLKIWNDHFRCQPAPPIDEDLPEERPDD

[2] = target: T2, human adenosine A1 receptor (Homo sapiens, UniProt P30542); experiment: Yeast β-Galactosidase reporter gene assay, inhibition of NECA-induced activity (strain CY12660)
T2 sequence (P30542 1-326): T1 sequence (P30542 1-326)

[3] = target: T3, human A1 receptor subtype (Homo sapiens, UniProt P30542); experiment: biochemical
T3 sequence (P30542 1-326): T1 sequence (P30542 1-326)

[4] = target: T4, human A2a receptor subtype (Homo sapiens, UniProt P29274); experiment: Adenosine 2a receptor subtype competition radioligand binding ([3H]CGS-21680, HEK293 membranes); conditions: Table 13, % value; footnote 8: % activity @ 10 μM
T4 construct: expressed in transfected cells; host or cells: HEK-293 (Cadus clone # 5)

[5] = target: T3, human A1 receptor subtype; conditions: Table 13, % value; footnote 8: % activity @ 10 μM
[6] = read-out: A1 Yeast IC50, Table 10

T4 sequence (P29274 whole entry): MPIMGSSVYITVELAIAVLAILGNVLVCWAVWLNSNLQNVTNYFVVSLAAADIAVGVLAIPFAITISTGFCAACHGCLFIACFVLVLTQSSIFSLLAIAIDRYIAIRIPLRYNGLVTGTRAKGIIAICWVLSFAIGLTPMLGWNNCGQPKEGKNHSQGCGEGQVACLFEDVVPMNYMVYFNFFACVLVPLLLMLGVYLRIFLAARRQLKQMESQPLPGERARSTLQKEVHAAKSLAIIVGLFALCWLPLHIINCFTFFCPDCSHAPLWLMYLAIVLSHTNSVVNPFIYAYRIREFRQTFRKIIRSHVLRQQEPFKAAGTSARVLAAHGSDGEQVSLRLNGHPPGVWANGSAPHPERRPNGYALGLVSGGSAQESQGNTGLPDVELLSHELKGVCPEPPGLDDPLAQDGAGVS

| SMILES | IC50 [2, 6] | A2a % activity [4] | other results |
| --- | --- | --- | --- |
| C[C@H](Cc1ccccc1)Nc1ncnc2c1ncn2[C@@H]1O[C@H](CO)[C@@H](O)[C@H]1O (single isomer, unassigned) [R-PIA, (−)-N6-(2-phenylisopropyl)-adenosine] | – | – | affinity (reported) [1]: approximately 50 nM |
| Cc1[nH]c2nc(-c3ccccc3)nc(NCCNS(C)(=O)=O)c2c1C [Compound 1007] | > 10 µM | – | – |
| Cc1[nH]c2nc(-c3ccccc3)nc(NCCNC(=O)CCN)c2c1C [Compound 1009] | > 10 µM | – | – |
| CCC(=O)NCCCNc1nc(-c2ccccc2)nc2[nH]c(C)c(C)c12 [Compound 1012] | – | – | IC50 [2]: 3.46 µM; Ki [3]: 0.234 µM |
| CNC(=O)NCCCNc1nc(-c2ccccc2)nc2[nH]c(C)c(C)c12 [Compound 1310] | – | 76% | – |
| Cc1[nH]c2nc(-c3ccccc3)nc(NCCNC(=O)C3(N)CC3)c2c1C [Compound 1313] | – | 65% | A1 % activity [5]: 30% |
